{"source": "paper PMC12670400", "about": "“LEKTI-Grafted Sunflower Trypsin Inhibitor: A Potential Therapeutic for Skin Diseases” (Journal of Medicinal Chemistry, 2025)", "key": {"[1]": {"system": "endogenous KLK5 of NS keratinocytes", "assay": "KLK5 protease activity assay for culture medium of NS keratinocytes", "assay_type": "biochemical, human", "settings": "for KLK5 activity in NS keratinocytes medium after treatment: one hour, n = 3, untreated 51.9 ± 1.6 nmol/g", "protocol": "To evaluate the inhibition of lead 7 on endogenous KLK5 activity, media collected from cultured NS keratinocytes and healthy donor keratinocytes were incubated with lead 7 at the final concentration of 100 nM, or 1 μM, or 10 μM for one hour. Media were then concentrated, and KLK5 activity was measured. […] There were significant differences in KLK5 activity before and after treatment (p < 0.05, n = 3). […] This may be because lead 7 exerts inhibitory effects only when KLK5 activity exceeds a certain threshold, which is not reached in keratinocytes from healthy donors. It was noted that the activity of KLK5 in NS was not reduced to the levels observed in normal keratinocytes. Two reasons might be behind this: (i) a higher lead 7 dose may be required, and (ii) the VPR-AMC substrate can be cleaved by a wider range of serine proteases. The remaining noninhibitory activity could be attributed to the presence of other trypsin-like serine proteases secreted in the cultured medium, which can hydrolyze the VPR-AMC substrate but are not inhibited by lead 7. […]\nKLK5 protease activity assay for culture medium\nKeratinocytes were seeded in 6 well plate with the density of 0.2 × 10⁶ cells per well and cultured in RM+ medium until they reached confluency. The culture media were changed to FBS free-RM+ media, and cells were continuously cultured. 48 hours after the medium changing, the culture media were harvested from the cell culture plates and centrifuged to remove dead cells. A volume of 180 µL of the supernatants was transferred to 1.5 mL Eppendorf tubes, followed by the addition of 20 µL of analogues in 1x PBS at different concentrations. The samples in which 20 µL of 1x PBS instead of the lead 7 were added were as untreated controls. These mixtures were incubated for one hours at 37 degrees Celsius and then processed for precipitation to concentrate the samples using ProteoExtract® Protein Precipitation Kit (Millipore, cat no. 539180). The precipitates were resuspended in 20 µL of 1X PBS (pH 8.0) for protease activity assessment using protease activity assay. 10uL of suspension from each sample was added in 96 well black plate. The enzymatic reaction was initiated by adding 100 µL of Boc-VPR-AMC substrate (final concentration 100 µM) to each well and RFU values in samples were measured. Protease activities were expressed as nmol/g by first converting RFU readings to KLK5 equivalent concentration activity using a KLK5 standard curve, followed by normalization to total protein content"}, "[2]": {"system": "endogenous KLK5 of healthy donor keratinocytes", "assay": "KLK5 protease activity assay for culture medium of healthy donor keratinocytes", "assay_type": "biochemical, human", "settings": "100 nM, 1 μM, 10 μM; p > 0.05, n = 9", "protocol": "To evaluate the inhibition of lead 7 on endogenous KLK5 activity, media collected from cultured NS keratinocytes and healthy donor keratinocytes were incubated with lead 7 at the final concentration of 100 nM, or 1 μM, or 10 μM for one hour. Media were then concentrated, and KLK5 activity was measured. […] There were significant differences in KLK5 activity before and after treatment (p < 0.05, n = 3). […] This may be because lead 7 exerts inhibitory effects only when KLK5 activity exceeds a certain threshold, which is not reached in keratinocytes from healthy donors. It was noted that the activity of KLK5 in NS was not reduced to the levels observed in normal keratinocytes. […]\ncalcium signalling. […] Fluorescence excitation was set at 485 nm, and emission was recorded at 520 nm using SpectraMax® i3x plate reader. […]\nKeratinocytes were seeded in 6 well plate with the density of 0.2 × 10⁶ cells per well and cultured in RM+ medium until they reached confluency. […] The enzymatic reaction was initiated by adding 100 µL of Boc-VPR-AMC substrate (final concentration 100 µM) to each well and RFU values in samples were measured. Protease activities were expressed as nmol/g by first converting RFU readings to KLK5 equivalent concentration activity using a KLK5 standard curve, followed by normalization to total protein content"}}, "note": "Bridge positions count the residues as written; N and C are the ends. Peptide text beside a SMILES is read from it."}
{"smiles": "C[C@@H](O)[C@@H]1NC(=O)[C@@H]2CSSC[C@H](NC(=O)[C@H](CCC(=O)O)NC(=O)[C@@H]3CCCN3C(=O)[C@@H]3CCCN3C(=O)[C@H](CC(N)=O)NC(=O)[C@H](CO)NC(=O)[C@H](CCCNC(=N)N)NC1=O)C(=O)N[C@@H](Cc1c[nH]c3ccccc13)C(=O)N1CCC[C@H]1C(=O)N[C@@H](CC(N)=O)C(=O)NCC(=O)N[C@@H](Cc1ccccc1)C(=O)N2", "note": "[compound 7] (cyclo(GFCTRSNPPECWPN); disulfide 3-11)", "values": [{"measurement": "reduction in KLK5 activity, NS keratinocytes", "setting": "[1]; 100 nM", "value": 14.6, "unit": "%"}, {"measurement": "KLK5 activity in NS keratinocytes medium after treatment", "setting": "[1]; 100 nM", "value": "44.3 ± 2.7", "unit": "nmol/g"}, {"measurement": "reduction in KLK5 activity, NS keratinocytes", "setting": "[1]; 1 μM", "value": 35.5, "unit": "%"}, {"measurement": "KLK5 activity in NS keratinocytes medium after treatment", "setting": "[1]; 1 μM", "value": "33.5 ± 2.6", "unit": "nmol/g"}, {"measurement": "reduction in KLK5 activity, NS keratinocytes", "setting": "[1]; 10 μM", "value": 41.2, "unit": "%"}, {"measurement": "KLK5 activity in NS keratinocytes medium after treatment", "setting": "[1]; 10 μM", "value": "30.5 ± 1.7", "unit": "nmol/g"}, {"measurement": "KLK5 activity before and after treatment, normal donor keratinocytes", "setting": "[2]", "value": "no significant differences"}]}
